This note sets out measurements from ChEMBL document CHEMBL1201862, “PubChem BioAssay data set” (2004).

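Where inhibition never reached the appropriate level, the endpoint shown equals the highest concentration tested. Otherwise, values were interpolated linearly from a five-concentration, 48-hour dose response in 96-well plates. At the GI50, growth is halved.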 Activity calls are given as the source filed them. Cut-off read from the data, not from the text of the source: active = GI50 up to about 1.1 µM and inactive = higher.

What all share (assay): DTP human tumour cell line panel, 48 h
Test [1] relates to 786-0.
The test system of test [2] is A549.
In test [3] the test system is CCRF-CEM.
In test [4] the test system is COLO 205.
Test [5] concerns DU-145.
The test system of test [6] is HCT-116.
Test [7] deals with HCT-15.
The subject of test [8] is Hs-578T.
Test [9] deals with MDA-MB-435.
Test [10] has as its system NCI-H226.
Test [11] deals with NCI-H522.
In test [12] the test system is OVCAR-3.
The subject of test [13] is PC-3.
In test [14] the test system is SK-OV-3.
Test [15] relates to SW-620.
Test [16] has as its system TK-10.
The subject of test [17] is UACC-257.
For test [18], the system named is UACC-62.
The test system of test [19] is RXF 393.
Test [20] concerns A498.

What is called GI50 is the concentration that inhibits growth by half. Take `Cc1sc2nc3n(sc4nc5sc(C)c(C)c5c(=O)n43)c(=O)c2c1C`: the GI50 in test [1] is > 100 µM (inactive); in test [2], > 100 µM (inactive); in test [3] it was 16.4 µM (inactive); in test [4], > 100 µM (inactive); in test [5] it was > 100 µM (inactive); in test [6], > 100 µM (inactive). For the same molecule, the GI50 is more than 100 µM in [7]; > 100 µM (inactive) in test [8]; > 100 µM (inactive) in test [9]; > 100 µM (inactive) in [10]; 16.4 µM (inactive) in test [11]; > 100 µM (inactive) in [12]. Besides, the GI50 in [13] is > 100 µM (inactive); in [14], > 100 µM (inactive); in test [15], 45.9 µM (inactive); in test [16] it was > 100 µM (inactive); in test [17] it was > 100 µM (inactive); in [18], 33.2 µM (inactive).

For the molecule `Cc1ccc(S(=O)(=O)NC(=O)NC(C(=O)O)C(C)C)cc1` (configuration not stated), the GI50 in test [1], in test [2], in test [3], in test [4], in test [5] and in test [6] was > 100 µM (inactive) each time. Besides, the 50% growth inhibitory concentration (GI50) in test [7] is more than 100 µM; in test [8], > 100 µM (inactive); in [11] it was > 100 µM (inactive); in [13] it was > 100 µM (inactive); in test [19] it was > 100 µM (inactive); in test [14], > 100 µM (inactive). Also, the GI50 in test [15], in test [16], in test [17] and in test [18] was > 100 µM (inactive) in each case.

Regarding `COC(=O)[C@@H]1C=C[C@@H](C#N)n2c(=O)n(-c3ccccc3)c(=O)n21`, the GI50 was 25.2 µM (inactive) in [1]; 41.1 µM (inactive) in test [20]; 25.9 µM (inactive) in test [3]; 40.3 µM (inactive) in test [4]; 25.5 µM (inactive) in [5]; 24.5 µM (inactive) in test [6]. Moreover, the GI50 was 30.1 µM in test [7]; 23.7 µM (inactive) in test [8]; 42 µM (inactive) in test [9]; 15.6 µM (inactive) in test [10]; 14.8 µM (inactive) in test [11]; 13.9 µM (inactive) in [12]. For the same molecule, the GI50 in [14] was 47.5 µM (inactive); in [15] it was 41.9 µM (inactive); in [16], 82.2 µM (inactive); in test [17], 39.4 µM (inactive); in test [18], 36.6 µM (inactive).

`CC(=O)OCC1OC(O/C=C(\CN=[N+]=[N-])C(C)=O)C(OC(C)=O)C(OC(C)=O)C1OC(C)=O` (configuration not stated): the GI50 in [1] is 5.38 µM (inactive); in test [20], 20.3 µM (inactive); in test [2], 20.7 µM (inactive); in test [3] it was 1.39 µM (inactive); in test [4], 1.74 µM (inactive); in [6], 3.51 µM (inactive). For the same molecule, the GI50 in test [7] was 3.94 µM; in [8], 52.6 µM (inactive); in test [9], 4.57 µM (inactive); in test [11], 1.79 µM (inactive); in test [12] it was 8.59 µM (inactive); in test [13], 12 µM (inactive). Besides, the GI50 in [14] was 45 µM (inactive); in test [15] it was 3.53 µM (inactive); in [16], 6.19 µM (inactive); in [17] it was 3.56 µM (inactive); in test [18], 11.6 µM (inactive).

For the molecule `CC(=O)OCC1OC(n2c3c(c(-c4cccc5ccccc45)c(C#N)c2=S)CCCC3)C(OC(C)=O)C(OC(C)=O)C1OC(C)=O` (configuration not stated), the GI50 in [1], in test [20], in [2], in [3], in [4] and in [5] was > 100 µM (inactive) throughout. The GI50 was > 100 µM (inactive) in test [6]; more than 100 µM in test [7]; > 100 µM (inactive) in [9]; > 100 µM (inactive) in test [10]; > 100 µM (inactive) in [11]; > 100 µM (inactive) in test [12]. The GI50 in [13] is 27.7 µM (inactive); in [19] it was > 100 µM (inactive); in test [14], > 100 µM (inactive); in test [15], > 100 µM (inactive); in test [16], > 100 µM (inactive); in test [17] it was > 100 µM (inactive). Further, the GI50 in test [18] was > 100 µM (inactive).

In the case of `COc1cc(C2c3cc4c(cc3[C@@H](Nc3ccccc3)C3COC[C@H]23)OCO4)cc(OC)c1O` (some centres not stated), the GI50 in test [1] is 1.1 µM (active); in [2] it was 0.35 µM (active); in test [3], 0.235 µM (active); in [4] it was 3.28 µM (inactive); in [6], 1.41 µM (inactive); in [7], 1.12 µM. The GI50 in test [8] is 0.736 µM (active); in test [9], 7.13 µM (inactive); in test [11], 2.2 µM (inactive); in test [13], 3.33 µM (inactive); in test [14] it was 2.92 µM (inactive); in test [15], 1.81 µM (inactive). Further, the GI50 is 7.46 µM (inactive) in [16] and 14.6 µM (inactive) in test [17].

As for `Nn1c(CCCCCCCCc2nnc(COc3ccc4ccccc4c3O)n2N)nnc1COc1ccc2ccccc2c1O`, the GI50 was 33.9 µM (inactive) in test [1]; 35.8 µM (inactive) in [20]; 25.1 µM (inactive) in [2]; 19.5 µM (inactive) in test [4]; 33.8 µM (inactive) in test [5]; 9.75 µM (inactive) in test [6]. Further, the concentration for 50% growth inhibition (GI50) in test [7] was 22.3 µM; in [9], 29.9 µM (inactive); in [10] it was 17.9 µM (inactive); in test [11], 14.6 µM (inactive); in [13], 26.7 µM (inactive); in test [19], 26.1 µM (inactive). The GI50 in [14] was 44 µM (inactive); in test [15], 52.7 µM (inactive); in test [16] it was 49.2 µM (inactive); in [17], 39.9 µM (inactive); in [18], 26.4 µM (inactive).

As to `COc1cc2c(cc1OCCCN1C(=O)c3cccc4cccc(c34)C1=O)N=C[C@@H]1CCCN1C2=O`, the GI50 is 21 µM (inactive) in [1]; > 100 µM (inactive) in [20]; > 100 µM (inactive) in test [2]; 5.65 µM (inactive) in [3]; 18.5 µM (inactive) in [4]; 46.1 µM (inactive) in [5]. The GI50 in [6] was 36.1 µM (inactive); in [7], 23.1 µM; in test [9], 40.1 µM (inactive); in test [10] it was 34.4 µM (inactive); in test [11] it was 14.3 µM (inactive); in test [12], 32.8 µM (inactive). In addition, the GI50 in test [13] is 44.8 µM (inactive); in test [19], 14.9 µM (inactive); in [14], > 100 µM (inactive); in test [15], 22.6 µM (inactive); in [16] it was 30.3 µM (inactive); in [17], 40.1 µM (inactive). Moreover, the GI50 in test [18] is > 62.7 µM (inactive).
